Here are results for 18 molecules from patent publication US7977332B2, “Insecticidal N-(heteroarylalkyl)alkanediamine derivatives” (FMC Corporation, priority 2003, dated 2011).

The first data set has as its system tobacco budworm (Heliothis virescens [Fabricius]). Kind of data set: surface-treated diet test against tobacco budworm. The class given is in vivo. Particulars: 0.25 millimolar on the surface of the diet; second instar larvae; five-day exposure. The protocol:
Candidate insecticides were evaluated for activity against the tobacco budworm (Heliothis virescens [Fabricius]) in a surface-treated diet test.
In this test one mL of molten (65-70° C.) wheat germ-based artificial diet was pipetted into each well of a four by six (24 well) multi-well plate (ID# 430345-15.5 mm dia.×17.6 mm deep; Corning Costar Corp., One Alewife Center, Cambridge, Mass. 02140). The diet was allowed to cool to ambient temperature before treatment with candidate insecticide.
For a determination of insecticidal activity, solutions of the candidate insecticides were prepared for testing using a Packard 204DT Multiprobe® Robotic System (Packard Instrument Company, 800 Research Parkway, Meriden, Conn. 06450), in which the robot first diluted a standard 50 millimolar DMSO solution of candidate insecticide with a 1:1 water/acetone solution (V/V) in a ratio of 1:7 stock solution to water/acetone. The robot subsequently pipetted 40 microliters of the so-prepared solution onto the surface of the diet in each of three wells in the 24 multi-well plate. The process was repeated with solutions of seven other candidate insecticides. Once treated, the contents of the multi-well plate were allowed to dry, leaving 0.25 millimoles of candidate insecticide on the surface of the diet, or a concentration of 0.25 millimolar. Appropriate untreated controls containing only DMSO on the diet surface were also included in this test.
For evaluations of the insecticidal activity of a candidate insecticide at varying rates of application, the test was established as described above using sub-multiples of the standard 50 millimolar DMSO solution of candidate insecticide. For example, the standard 50 millimolar solution was diluted by the robot with DMSO to give 5, 0.5, 0.05, 0.005, 0.0005 millimolar, or more dilute solutions of the candidate insecticide. In these evaluations there were six replicates of each rate of application placed on the surface of the diet in the 24 multi-well plate, for a total of four rates of application of candidate insecticide in each plate.
In each well of the test plate was placed one second instar tobacco budworm larvea, each weighing approximately five milligrams. After the larvae were placed in each well, the plate was sealed with clear polyfilm adhesive tape. The tape over each well was perforated to ensure an adequate air supply. The plates were then held in a growth chamber at 25° C. and 60% relative humidity for five days (light 14 hours/day).
After the five-day exposure period insecticidal activity for each rate of application of candidate insecticide was assessed as percent inhibition of insect weight relative to the weight of insects from untreated controls, and percent mortality when compared to the total number of insects infested.
The test compounds of formula I are identified by numbers that correspond to those in Table 1.
Take `C=CCN(CCNC(=C[N+](=O)[O-])SCc1ccc(C(F)(F)F)cc1)Cc1ccc(Cl)nc1` [Compound 328]: the “Percent Mortality” value was 83%.

The data set is the same for the next values; noted with them: 0.25 millimolar on the surface of the diet; second instar larvae; five-day exposure; insect weight relative to untreated controls.
Turning to `CSC(=C[N+](=O)[O-])NCCN(CC#Cc1cncnc1)Cc1ccc(Cl)nc1` [Compound 304], the “Percent Growth Inhibition” value turned out to be 61%.
Still for that read-out and setting: for `O=[N+]([O-])C=C(NCCN(Cc1ccccc1)Cc1ccc(Cl)nc1)SCc1ccc(C(F)(F)F)cc1` [Compound 307] the value was 100%; for `COc1ccc(CN(CCNC(=N[N+](=O)[O-])SCc2ccccc2)Cc2ccc(Cl)nc2)cc1` [Compound 310], 100%.
The same measure, in the same setting: for `COc1ccc(CN(CCNC(=N[N+](=O)[O-])SCc2ccc(Cl)cc2)Cc2ccc(Cl)nc2)cc1` [Compound 311] the value was 100%; for `O=[N+]([O-])C=C(NCCN(Cc1ccc(Cl)nc1)Cc1ccc(Cl)nc1)SCc1ccccc1Cl` [Compound 314], 100%.
Same read-out and setting: for `O=[N+]([O-])C=C(NCCN(Cc1ccc(Cl)nc1)Cc1ccc(Cl)nc1)SCc1cccc(Cl)c1` [Compound 315] the value was 98%; for `O=[N+]([O-])C=C(NCCN(Cc1ccc(Cl)nc1)Cc1ccc(Cl)nc1)SCc1c(F)c(F)c(F)c(F)c1F` [Compound 318], 100%; for `Cc1ccccc1CSC(=C[N+](=O)[O-])NCCN(Cc1ccc(Cl)nc1)Cc1ccc(Cl)nc1` [Compound 319], 10%.
Take `Cc1cccc(CSC(=C[N+](=O)[O-])NCCN(Cc2ccc(Cl)nc2)Cc2ccc(Cl)nc2)c1` [Compound 320]: the “Percent Growth Inhibition” value was 96%.
In the case of `Cc1ccc(CSC(=C[N+](=O)[O-])NCCN(Cc2ccc(Cl)nc2)Cc2ccc(Cl)nc2)cc1` [Compound 321], the “Percent Growth Inhibition” value was determined as 100%.
Still for that read-out and setting: for `O=[N+]([O-])C=C(NCCN(Cc1ccc(Cl)nc1)Cc1ccc(Cl)nc1)SCc1ccccc1C(F)(F)F` [Compound 322] the value was 100%; for `O=[N+]([O-])C=C(NCCN(Cc1ccc(Cl)nc1)Cc1ccc(Cl)nc1)SCc1cccc(C(F)(F)F)c1` [Compound 323], 100%; for `O=[N+]([O-])C=C(NCCN(Cc1ccc(Cl)nc1)Cc1ccc(Cl)nc1)SCc1ccc(C(F)(F)F)cc1` [Compound 324], 100%.
Still for that read-out and setting: for `COc1ccccc1CSC(=C[N+](=O)[O-])NCCN(Cc1ccc(Cl)nc1)Cc1ccc(Cl)nc1` [Compound 325] the value was 100%; for `COc1cccc(CSC(=C[N+](=O)[O-])NCCN(Cc2ccc(Cl)nc2)Cc2ccc(Cl)nc2)c1` [Compound 326], 100%.
Still for that read-out and setting: for `COc1ccc(CSC(=C[N+](=O)[O-])NCCN(Cc2ccc(Cl)nc2)Cc2ccc(Cl)nc2)cc1` [Compound 327] the value was 100%; for `C=CCN(CCNC(=C[N+](=O)[O-])SCc1ccc(C(F)(F)F)cc1)Cc1ccc(Cl)nc1` [Compound 328], 98%; for `C#CCN(CCN1COCNC1=N[N+](=O)[O-])Cc1ccc(Cl)nc1` [Compound 558], 85%.
